52 compounds from US10577373B2, “TYK2 inhibitors and uses thereof” (Nimbus Lakshmi, Inc., priority 2017, dated 2020) can be followed below.

The subject of assay [1] is IL-12 induced STAT4 phophorylation mediated by Tyk2/JAK2 (heterodimeric complex). Kind of assay: IL-12 Induced pSTAT4 in Human PBMC. It is filed as cell-based. To be noted: 1.7 ng/mL IL-12. The text has this: The IL-12 Induced pSTAT4 assay evaluates the inhibition of IL-12 induced STAT4 phophorylation mediated by Tyk2/JAK2 (heterodimeric complex).
Assay [2] concerns GM-CSF induced STAT5 phosphorylation mediated by the JAK2/JAK2 homdimeric complex. Kind of assay: GM-CSF Induced pSTAT5 in Human PBMC. To be noted: Homo sapiens, PBMC, 20 min, read-out: PBMC_GMCSF_pSTAT5 IC50, human PBMC; GM-CSF 5 ng/mL for 20 minutes; pSTAT5.
From the text: Human PBMC are isolated from buffy coat and are stored frozen for assays as needed.

What is called IC50 is the concentration at which inhibition is half-maximal. In the case of `CNc1cc(-c2cn(C(C)C)c3ncccc23)nc2c(C(N)=O)cnn12` [I-222, 5-(1-isopropyl-1H-pyrrolo[2,3-b]pyridin-3-yl)-7-(methylamino)pyrazolo[1,5-a]pyrimidine-3-carboxamide], the values for the IC50 in assay [1] and in assay [2] were less than 100 nM and more than 2500 nM, respectively.
With `CNc1cc(-c2cn(C(C)C)c3ncccc23)nc2c(C(=O)NC3CC3)cnn12` [I-223], the results for the IC50 in assay [1] and in assay [2] were less than 100 nM and more than 12500 nM, respectively.
The matching figures for `CNc1cc(-c2cn(C(C)C)c3ncccc23)nc2c(C(=O)NC3CCC3)cnn12` [I-224]: less than 100 nM and more than 50000 nM.
Regarding `CNc1cc(Nc2cc(C)cn(-c3cnn(C)c3)c2=O)nc2c(C(=O)NC3CC3)cnn12` [I-233], the IC50 is less than 100 nM in assay [1] and more than 50000 nM in assay [2].
With `CNc1cc(Nc2cc(C)cn(-c3cnn(C)c3)c2=O)nc2c(C(=O)NC3CCC3)cnn12` [I-234], the IC50 in assay [1] is less than 100 nM; in assay [2] it was more than 2500 nM.
For `CNc1cc(Nc2cc(C)cn(-c3cnn(C)c3)c2=O)nc2c(C(=O)N[C@H]3C[C@H]3F)cnn12` [I-235] the same measures were less than 100 nM and more than 2500 nM.
Turning to `CNc1cc(Nc2cccc(N3CCOC3=O)n2)nc2c(C(=O)N[C@H]3C[C@H]3F)cnn12` [I-236], the IC50 in assay [1] is less than 100 nM; in assay [2] it was more than 2500 nM.
On to `CNc1cc(Nc2cccn(-c3ccc(F)cn3)c2=O)nc2c(C(=O)NC3CCC3)cnn12` [I-238], for which the IC50 was less than 100 nM in assay [1] and more than 50000 nM in assay [2].
For `CNc1cc(Nc2cccn(-c3ccc(C4CC4)nn3)c2=O)nc2c(C(=O)NC3CCC3)cnn12` [I-240], the IC50 in assay [1] is less than 100 nM; in assay [2], more than 2500 nM.
Take `CNc1cc(Nc2cccn(-c3nccs3)c2=O)nc2c(C(=O)N[C@H]3C[C@H]3F)cnn12` [I-243]: the concentration for half-maximal inhibition (IC50) is less than 100 nM in assay [1] and more than 2500 nM in assay [2].
`CNc1cc(Nc2cccc(N3CCCC3=O)n2)nc2c(C(=O)N[C@H]3C[C@H]3F)cnn12` [I-244]: the IC50 in assay [1] is less than 100 nM; in assay [2] it was more than 12500 nM.
`CNc1cc(Nc2cccn(-c3ccc(F)cc3)c2=O)nc2c(C(=O)NC3CCC3)cnn12` [I-246]: the IC50 is less than 100 nM in assay [1] and more than 2500 nM in assay [2].
As to `CNc1cc(Nc2cc(C)cn(-c3ccn(C)n3)c2=O)nc2c(C(=O)N[C@H]3C[C@H]3F)cnn12` [I-250], the IC50 in assay [1] was less than 100 nM; in assay [2], more than 12500 nM.
`CNc1cc(-c2cn(C(C)C)c3ncc(C)cc23)nc2c(C(N)=O)cnn12` [I-255]: the IC50 was less than 100 nM in assay [1] and more than 50000 nM in assay [2].
In the case of `[2H]C([2H])([2H])Oc1ncc(C)cc1Nc1cc(NC)n2ncc(C(=O)NC3CC3)c2n1` [I-258], the IC50 in assay [1] was less than 100 nM; in assay [2], more than 50000 nM.
As for `[2H]C([2H])([2H])Oc1ncc(C)cc1Nc1cc(NC)n2ncc(C(=O)N[C@H]3C[C@H]3F)c2n1` [I-259], the values for the IC50 in assay [1] and in assay [2] were less than 100 nM and more than 12500 nM, respectively.
`CNc1cc(Nc2cccn(-c3ncc(C)s3)c2=O)nc2c(C(=O)NC3CC3)cnn12` [I-261, N-cyclopropyl-7-(methylamino)-5-((1-(5-methylthiazol-2-yl)-2-oxo-1,2-dihydropyridin-3-yl)amino)pyrazolo[1,5-a]pyrimidine-3-carboxamide]: the IC50 was less than 100 nM in assay [1] and more than 2500 nM in assay [2].
In the case of `CNc1cc(Nc2cccn(-c3ncc(C)s3)c2=O)nc2c(C(=O)N[C@H]3C[C@H]3F)cnn12` [I-262], the IC50 in assay [1] is less than 100 nM; in assay [2], more than 2500 nM.
The matching figures for `CNc1cc(Nc2cccn(-c3ncc(C)s3)c2=O)nc2c(C(=O)NC3CCC3)cnn12` [I-263]: less than 100 nM and more than 2500 nM.
Turning to `CNc1cc(Nc2cccn(-c3ccc(OC)cn3)c2=O)nc2c(C(=O)N[C@H]3C[C@H]3F)cnn12` [I-265], the IC50 in assay [1] is less than 100 nM; in assay [2] it was more than 12500 nM.
Take `CNc1cc(Nc2cccn(-c3ccc(OC)cn3)c2=O)nc2c(C(=O)NC3CCC3)cnn12` [I-266]: the IC50 was less than 100 nM in assay [1] and more than 12500 nM in assay [2].
For `CNc1cc(Nc2cccn(CCOC)c2=O)nc2c(C(=O)NC3CCC3)cnn12` [I-269] the same measures were less than 100 nM and more than 50000 nM.
On to `CNc1cc(-c2cn(C(C)C)c3ncc(Cl)cc23)nc2c(C(N)=O)cnn12` [I-272, 5-(5-chloro-1-isopropyl-1H-pyrrolo[2,3-b]pyridin-3-yl)-7-(methylamino) pyrazolo[1,5-a]pyrimidine-3-carboxamide], for which the IC50 in assay [1] was less than 100 nM; in assay [2], more than 12500 nM.
The matching figures for `CNc1cc(Nc2cc(F)cnc2OC2CC2)nc2c(C(=O)NC3CC3)cnn12` [I-274]: less than 100 nM and more than 12500 nM.
Consider `CNc1cc(Nc2cc(F)cnc2OC2CC2)nc2c(C(=O)N[C@H]3C[C@H]3F)cnn12` [I-275], for which the IC50 in assay [1] is less than 100 nM; in assay [2] it was more than 50000 nM.
As for `CNc1cc(Nc2cc(F)cnc2OC2CC2)nc2c(C(=O)NC3CCC3)cnn12` [I-276], the IC50 in assay [1] was less than 100 nM; in assay [2], more than 50000 nM.
The matching figures for `CNc1cc(Nc2cc(C)cnc2OC2CC2)nc2c(C(=O)NC3CC3)cnn12` [I-277]: 100 to 500 nM and more than 50000 nM.
Turning to `CNc1cc(Nc2cc(C)cnc2OCCOC)nc2c(C(=O)NC3CC3)cnn12` [I-281], the IC50 in assay [1] was 100 to 500 nM; in assay [2] it was more than 2500 nM.
As for `CNc1cc(Nc2cc(C)cnc2OCCOC)nc2c(C(=O)NC3CCC3)cnn12` [I-282], the values for the IC50 in assay [1] and in assay [2] were 100 to 500 nM and more than 2500 nM, respectively.
Consider `CNc1cc(Nc2cc(F)cnc2OC)nc2c(C(=O)NCC(C)(C)CO)cnn12` [I-283], for which the IC50 in assay [1] was less than 100 nM; in assay [2], more than 50000 nM.
In the case of `[2H]C([2H])([2H])Oc1ncc(F)cc1Nc1cc(NC)n2ncc(C(=O)NC3CC3)c2n1` [I-284], the results for the IC50 in assay [1] and in assay [2] were less than 100 nM and more than 12500 nM, respectively.
For `CNc1cc(Nc2cc(F)cnc2OCCOC)nc2c(C(=O)N[C@H]3C[C@H]3F)cnn12` [I-285] the same measures were less than 100 nM and more than 50000 nM.
In the case of `[2H]C([2H])([2H])Oc1ncc(F)cc1Nc1cc(NC)n2ncc(C(=O)NC3CCC3)c2n1` [I-288], the values for the IC50 in assay [1] and in assay [2] were less than 100 nM and more than 2500 nM, respectively.
For `CNc1cc(Nc2cc(F)cnc2OCCOC)nc2c(C(=O)NC3CCC3)cnn12` [I-290] the same measures were less than 100 nM and more than 2500 nM.
The matching figures for `CNc1cc(Nc2cccn(-c3nc(C)c(C)s3)c2=O)nc2c(C(=O)N[C@H]3C[C@H]3F)cnn12` [I-292]: less than 100 nM and more than 2500 nM.
In the case of `CNc1cc(Nc2cccn(-c3ccn(C)n3)c2=O)nc2c(C(=O)NC3CC3)cnn12` [I-294], the values for the IC50 in assay [1] and in assay [2] were less than 100 nM and more than 12500 nM, respectively.
In the case of `CNc1cc(Nc2cccn(-c3cnn(C)c3)c2=O)nc2c(C(=O)NC3CC3)cnn12` [I-295], the IC50 in assay [1] was less than 100 nM; in assay [2], more than 50000 nM.
For `CNc1cc(Nc2cccn(-c3cnn(C)c3)c2=O)nc2c(C(=O)N[C@H]3C[C@H]3F)cnn12` [I-296], the figures for the IC50 in assay [1] and in assay [2] were less than 100 nM and more than 50000 nM, respectively.
With `CNc1cc(Nc2cccn(-c3cncc(C)c3)c2=O)nc2c(C(=O)NC3CCC3)cnn12` [I-303], the IC50 is less than 100 nM in assay [1] and more than 50000 nM in assay [2].
Regarding `CNc1cc(Nc2cccn(C3CCCCC3)c2=O)nc2c(C(=O)N[C@H]3C[C@H]3F)cnn12` [I-305], the IC50 is less than 100 nM in assay [1] and more than 12500 nM in assay [2].
For `CNc1cc(Nc2cc(Cl)cn(-c3ccn(C)n3)c2=O)nc2c(C(=O)N[C@H]3C[C@H]3F)cnn12` [I-309] the same measures were less than 100 nM and more than 12500 nM.
For the compound `CNc1cc(Nc2cc(Cl)cn(-c3ccn(C)n3)c2=O)nc2c(C(=O)NC3CC3)cnn12` [I-310], the IC50 in assay [1] was less than 100 nM; in assay [2], more than 2500 nM.
The matching figures for `CNc1cc(Nc2cc(Cl)cn(-c3cnn(C)c3)c2=O)nc2c(C(=O)NC3CC3)cnn12` [I-311]: less than 100 nM and more than 12500 nM.
The matching figures for `CNc1cc(Nc2cc(Cl)cn(-c3cnn(C)c3)c2=O)nc2c(C(=O)N[C@H]3C[C@H]3F)cnn12` [I-312]: less than 100 nM and more than 12500 nM.
For `CNc1cc(Nc2cc(Cl)cn(-c3cc(C)n(C)n3)c2=O)nc2c(C(=O)NC3CC3)cnn12` [I-314] the same measures were less than 100 nM and more than 2500 nM.
On to `CNc1cc(Nc2cc(Cl)cn(-c3cc(C)n(C)n3)c2=O)nc2c(C(=O)N[C@H]3C[C@H]3F)cnn12` [I-315], for which the IC50 in assay [1] is less than 100 nM; in assay [2], more than 12500 nM.
The matching figures for `CNc1cc(Nc2cc(Cl)cn(-c3ccnc(C)n3)c2=O)nc2c(C(=O)N[C@H]3C[C@H]3F)cnn12` [I-317]: less than 100 nM and more than 2500 nM.
In the case of `CNc1cc(Nc2cc(Cl)cn(-c3cnc(C(=O)N(C)C)cn3)c2=O)nc2c(C(=O)NC3CC3)cnn12` [I-318], the IC50 is less than 100 nM in assay [1] and more than 2500 nM in assay [2].
Regarding `CNc1cc(Nc2cc(Cl)cn(-c3cnc(C(=O)N(C)C)cn3)c2=O)nc2c(C(=O)N[C@H]3C[C@H]3F)cnn12` [I-319], the figures for the IC50 in assay [1] and in assay [2] were less than 100 nM and more than 2500 nM, respectively.
For `[2H]C([2H])([2H])Oc1ncccc1Nc1cc(NC)n2ncc(C(=O)N[C@H]3C[C@H](O)C3)c2n1` [I-321, N-((1r,3r)-3-hydroxycyclobutyl)-5-((2-(methoxy-d3)pyridin-3-yl)amino)-7-(methylamino)pyrazolo[1,5-a]pyrimidine-3-carboxamide], the results for the IC50 in assay [1] and in assay [2] were less than 100 nM and more than 2500 nM, respectively.
The matching figures for `CNc1cc(Nc2cc(Cl)cn(-c3ncc(C)s3)c2=O)nc2c(C(=O)N[C@H]3C[C@H]3F)cnn12` [I-323]: less than 100 nM and more than 2500 nM.
Regarding `CNc1cc(Nc2cc(Cl)cn(-c3cnn(C4CC4)c3C)c2=O)nc2c(C(=O)N[C@H]3C[C@H]3F)cnn12` [I-326], the values for the concentration for half-maximal inhibition (IC50) in assay [1] and in assay [2] were less than 100 nM and more than 50000 nM, respectively.
